From patent US10872410B2, “Methods and apparatus for assessing immune system activity and therapeutic efficacy” (Animantis, LLC, priority 2016, dated 2020)

Test system: cell population sets
Test: Directional displacement of cell population sets measured with the immune platform (FIG. 7)
Format: cell-based
Conditions: conditions unstimulated, LPS, TNF, effect of presence of the stimulus
Text: FIG. 7 is a graphical representation of the directional displacement of cell population sets as measured using an embodiment of the immune platform described herein. […]

Substance | directional displacement of cell population sets
lipopolysaccharide [LPS] | greatly affected
tumor necrosis factor [TNF] | minimally affected
